Test results taken from article PMC9549030, “Structural basis for specific inhibition of the deubiquitinase UCHL1” (Nature Communications, 2022).
pIC50: −log10 of the molar value. Values joined by “and” are separate entries in the source; they are usually repeats but may differ in a detail not shown here. Equal entries are not always repeated. Where two headings read alike, the source gives them in different places.

Columns and labels:
[1] = target: T1, UCHL3 (Homo sapiens, UniProt P15374); assay: Ub-Rhodamine (Ubiquitin rhodamine cleavage) assay; assay type: biochemical; details: for normalized UCHL3 activity: independent experiments
T1 sequence (P15374 1-230): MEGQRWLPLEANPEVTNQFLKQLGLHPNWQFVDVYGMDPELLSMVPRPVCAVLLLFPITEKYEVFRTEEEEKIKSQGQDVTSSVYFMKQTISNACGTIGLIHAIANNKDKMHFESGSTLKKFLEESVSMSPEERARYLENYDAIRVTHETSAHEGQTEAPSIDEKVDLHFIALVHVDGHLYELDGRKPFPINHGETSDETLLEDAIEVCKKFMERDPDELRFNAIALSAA

[2] = target: T2, UCHL1 (Homo sapiens, UniProt P09936); assay: Thermal shift assay; assay type: binding; details: UCHL1 1 µM, 1 h, replicates
T2 sequence (P09936 1-223): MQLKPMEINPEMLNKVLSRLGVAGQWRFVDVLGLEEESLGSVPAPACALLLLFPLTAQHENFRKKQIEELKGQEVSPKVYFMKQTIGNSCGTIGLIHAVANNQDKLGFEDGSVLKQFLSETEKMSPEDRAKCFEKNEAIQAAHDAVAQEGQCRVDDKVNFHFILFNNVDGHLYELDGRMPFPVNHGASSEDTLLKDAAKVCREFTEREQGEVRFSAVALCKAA
Description: Reactions were performed in white 96-well PCR plates (Bio-Rad). UCHL1 was diluted in thermal shift buffer (1x PBS, 5 mM DTT) to a 4x concentration of 4 µM. The protein was then mixed with 4x compound dissolved in thermal shift buffer in a 1:1 ratio. To each well was added 20 µL of DUB-Inhibitor solution, followed by 1 h incubation time. To each well was then added 20 µL 4x SYPRO Orange in thermal shift buffer. After sealing the plates with a transparent film, thermal denaturation (gradient: 20–90 °C; Increment: 0.3 °C, hold for 5 s before read) was performed and monitored by a Bio-Rad Connect cycler.

C#CCCCNC(=O)c1ccc(-n2cnc(NC(=O)[C@H]3CCN(C#N)C3)c2)cc1 [GK13S]
pIC50 ([1]; Fig. 6b, catalytic domain, 1 h preincubation, read-out: IC50 (UCHL3)): < 5.00 | normalized UCHL3 activity ([1]; GK13S 0.305176 nM, 1 h preincubation): 0.9831 and 1.008 and 0.9131 and 1.009 | normalized UCHL3 activity ([1]; GK13S 0.610352 nM, 1 h preincubation): 1.008 and 0.9835 and 0.9698 and 1.0514 | normalized UCHL3 activity ([1]; GK13S 1.2207 nM, 1 h preincubation): 0.9936 and 1.008 and 1.001 and 1.003 | normalized UCHL3 activity ([1]; GK13S 2.44141 nM, 1 h preincubation): 1.012 and 1.01 and 1.135 and 1.033 | normalized UCHL3 activity ([1]; GK13S 4.88281 nM, 1 h preincubation): 1.012 and 1.015 and 0.9843 and 1.023 | normalized UCHL3 activity ([1]; GK13S 9.76562 nM, 1 h preincubation): 0.9453 and 1.0198 and 0.9972 and 1.02 | normalized UCHL3 activity ([1]; GK13S 19.5312 nM, 1 h preincubation): 1.009 and 0.9664 and 0.9869 and 0.9884 | normalized UCHL3 activity ([1]; GK13S 39.0625 nM, 1 h preincubation): 0.985 and 0.9652 and 1.009 and 1.006 | normalized UCHL3 activity ([1]; GK13S 78.125 nM, 1 h preincubation): 1.004 and 0.9567 and 0.9151 and 0.8923 | normalized UCHL3 activity ([1]; GK13S 156.25 nM, 1 h preincubation): 0.9712 and 0.9475 and 0.9259 and 1.044 | normalized UCHL3 activity ([1]; GK13S 312.5 nM, 1 h preincubation): 1.024 and 0.9438 and 0.9427 and 1.0301 | normalized UCHL3 activity ([1]; GK13S 625 nM, 1 h preincubation): 1.039 and 0.9614 and 0.9134 and 1.027 | normalized UCHL3 activity ([1]; GK13S 1250 nM, 1 h preincubation): 1.008 and 0.9574 and 0.9187 and 1.016 | normalized UCHL3 activity ([1]; GK13S 2500 nM, 1 h preincubation): 0.975 and 0.9516 and 0.9328 and 0.9957 | normalized UCHL3 activity ([1]; GK13S 5000 nM, 1 h preincubation): 0.9885 and 0.924 and 0.8998 and 0.9921 | normalized UCHL3 activity ([1]; GK13S 10000 nM, 1 h preincubation): 0.972 and 0.9338 and 0.9178 and 0.9898 | pIC50 ([1]; Supplementary Fig. 10c, 3 independent experiments, read-out: IC50 (UCHL3 wt)): < 4.00 | melting temperature (Tm) of UCHL1 ([2]; compound 1.25 µM): 59.1 and 58.5 | melting temperature (Tm) of UCHL1 ([2]; compound 2.5 µM): 58.8 and 59.1 | melting temperature (Tm) of UCHL1 ([2]; compound 5 µM): 59.1
